Measured values reported in US12089542B2, “Subsurface drip irrigation (SDI) lines enhanced with essential oils” (Metzerplas Cooperative Agricultural Organization Ltd., priority 2020, dated 2024).

Experiments:
mash bean seeds [1] = experiment: Inhibition of root penetration in subsurface pipes by Thymol-active based film (5%), lab planters; format: in vivo
From the text: Holes were drilled at the bottom for water drainage. PE pipe was specially manufactured by METZERPLAS (Israel), with a coating that prevents diffusion of materials through the PE matrix. Pipe diameter 16 mm with a wall thickness of 0.9 mm. A VARDIT 16-type adjusted dripper was selected, with a flow rate of 1.2 liters/hour for each dripper spaced 20 cm apart across the pipes, which were placed 5 cm from the planter base. An ARC1-based active film (Cloisite 15 3% wt and Thymol 5%) was inserted to one pipe [FIG. 2] and its activity was compared with another pipe with no active agent, used as a negative control.
The planting substrate was Perlite mixed with Hydroton, and mash bean seeds were sown after surface-sterilization with 10% […], for 20 min, to avoid possible inhibition caused by toxins from fungi or bacteria. Seeds were then rinsed with an abundance of distilled water 20 g of seeds were sown 7 cm deep in each flowerbox.
A high ratio of seeds:volume was intentionally used to increase the chance of root intrusion.
Irrigation regimen was set at four times a day for ten minutes. The experiment was conducted in a lab, with light supplied 24 hours a day, and room temperature±25° C. After twenty days, the drippers were opened to examine whether the Thymol was able to function as an anti-root (AR) agent and protect the SDI pipe from root intrusion.

Sorghum = experiment: Greenhouse experiment using Sorghum and 5% Thymol, root clogging of SDI drippers; format: in vivo; conditions: for % Clogged drippers / Clogged drippers / Clean drippers: 2.5 months greenhouse; for roots accumulated on top of the pipe in the area of the drippers' holes: FIG. 7; for Clogged drippers / Clean drippers: number of drippers; for Clogged drippers: ARC1 film in pipe or Treflan pipe
Description: In order to confirm the results of Example 1 in a more agricultural settind and in a different pant variety, Sorghum seeds were grown in a TROPICO-type greenhouse (TOP Company), at Kibbutz Metzer (Israel) during the summer season, for 2.5 months.
Individual PP (polypropylene) cases were built for seed beds, with the dimensions of 40 cm height, 20 cm width, and 5 meters length. ARC1-based active films were inserted into PE SDI pipes as in Example 1, and activity of thymol as a root inhibitor was compared to that of TREFLAN chemical herbicide (positive control), as well as to herbicide free pipe used as a negative control.
The pipes were placed 15 cm above the bed's bottom, mimicking a buried drip irrigation situation at a realistic ‘field depth’ for the SDI system. Holes were drilled at the bed's edges to allow easy access to the initial and the last pipe and to enable simple irrigation and fertilization control.
The seed beds were filled with ‘Ram 8’-type (Tuff Merom Golan), a professional planting substrate, 80% coarse peat/20% coconut composition.
“Bulldozer”-type sorghum seeds, supplied by CTS Company, were sown. Sorghum is categorized as a classical field-growth plant and characterized by a robust and aggressive root system with secondary growth ability after ‘green’ harvesting without inflorescence.
The sowing process corresponded to field sowing. Eight seeds per meter were sown at 2.5 cm deep, with 12.5 cm sowing intervals.
Irrigation regime was determined differentially, taking into consideration climate data and irrigation type. During the first week from sowing, the irrigation carried out using sprinklers without fertilization. After sprouting and germination, the irrigation was performed through underground drip irrigation only, accompanied by proportional fertilization, “fertilizer-all”-type 17-10-27, with trace elements. The level of fertilizer in irrigation water was about 30 ppm nitrogen. In contrast to example 1, irrigation and fertilization regimes performed were minimal to create ‘starvation’ and cause the roots to aggressively migrate towards the drippers' holes in search of water and fertilizer.

helianthus seeds = experiment: Helianthus seeds in planters with 7% Thymol (ARC2 film in pipe); format: in vivo
Description: In order to evaluate the effect of increasing the amount of Thymol, an additional experiment was conducted using ARC2 polymer (Cloisite 15A 10 wt % nanoclay; 7% Thymol). The experiment was conducted on helianthus seeds during the summer season, temperature above 30° C., for two months.
Planter dimensions were 110 cm length, 10 cm width, and 15 cm height. The pipes were placed 5 cm from the planter base, where holes were drilled for drainage.
One planter contained negative control pipe, while ARC2-based active film (experimental) was inserted to pipe in experimental planters as in examples 1 and 2.
Potting soil for plant growth was a mixture of German Kalsmann peat, coconut fiber, ventilation materials, and slow-release fertilizers, mixed with Perlite.
Thirty seeds were sown in two columns at 1 cm depth and 7 cm intervals.
Irrigation cycle was set twice daily for three minutes.
As in previous examples, the number of seeds sown relative to the planter size was large and irrigation regime was minimal to increase the root-intrusion tendency.

cucumber seeds = experiment: Bioassay of Thymol activity on plant health and development, cucumber; format: in vivo
Description: (§1) In order to determine the suitability of Thymol as an anti-root (AR) agent in a variety of agricultural settings, Thymol activity was tested on different seed types.
(§2) The experiment was conducted for two months during the spring with an ambient temperature of ±30° C. Plastic boxes of 30 cm length, 20 cm width, and 15 cm height were filled with German Kalsmann peat, coconut fiber, ventilation materials, and slow-release fertilizers as planting substrate.
(§3) Cucumber, tomato, beetroot, and sweet corn seeds were each sown in two boxes (8 boxes in total); one box of each seed type was used as a negative control and in the other box (experimental) an ARC2-based active film (Cloisite 15A 10 wt % nanoclay; 7% Thymol) was placed adjacent to the box wall to assess Thymol activity [FIG. 12]. The film folded in half, corresponding to the length and width dimensions of the box.
(§4) For each seed type, both boxes were placed outdoors according to the sun intensity the plant requires. Each seed type was given an appropriate amount of water evenly, using a can.

tomato seeds = experiment: Bioassay of Thymol activity on plant health and development, tomato; format: in vivo; conditions: ARC2 film (7% Thymol) adjacent to box wall
Description: as §1, §2, §3, §4

sweet corn seeds = experiment: Bioassay of Thymol activity on plant health and development, sweet corn; format: in vivo; conditions: ARC2 film (7% Thymol) adjacent to box wall
Description: as §1, §2, §3, §4

beetroot seeds = experiment: Bioassay of Thymol activity on plant health and development, beetroot; format: in vivo; conditions: ARC2 film (7% Thymol) adjacent to box wall
Description: as §1, §2, §3, §4

[2] = Quantitative analysis of Thymol concentration remaining in the film (extraction, Gibbs reagent, UV-visible); format: physicochemical
Description: The amount of Thymol remaining in the films immediately after processing and at the end of each experiment was determined by UV-visible 1650PC spectrophotometer (Shimadzu), through extraction. The procedure is suitable for different phenolic EOs and is based on Gibbs reagent (2,6-dichlorobenzoquinone 4-chloroimine).
Briefly, different Thymol-active films were cut to small pieces, weighed, and extracted by refluxing with 2-propanol at a ratio of 500 mg film/25 ml propanol, for 2 hours. To 100 ml volumetric flasks containing 10 ml of a standard Buffer solution of Boric Acid+Potassium Chloride, 1 ml of the extraction solution, 4 mL of 2-propanol, and 1 ml of Gibbs reagent solution was added. The solution was allowed to stand for 15 min to enable the reaction to occur fully. The resulting violet water-soluble dye has a maximum absorption at 590 nm wavelength. Thymol concentration retained in the film, as a proportion of the nominal concentration, was calculated from a calibration curve. Two replicates were measured for each standard.

mash bean seeds [3] = experiment: Combination of active ingredients: mash bean root development in open jars with ARC2 films; format: in vivo; conditions: 7% in ARC2 film
Description: In order to evaluate the efficacy of Thymol relative to another EO, and to see if combination could result in synergistic activity, an additional experiment was conducted using ARC2 polymer (Cloisite 15A 10 wt % nanoclay) with mash bean seeds in open jars. Cotton wool was placed in the jar as a substrate in the center of which the seeds were sown. Three types of EOs were incorporated into the ARC2 polymer films (7% Thymol, 7% pelargonic acid, and 3.5% Thymol/3.5% pelargonic acid) with a dimension of 1 cm width, 3 cm length, and 3 mm thickness were tested and compared to a reference sample (without EO). Each film was placed adjacent to the jar wall. Seeds were watered once a day for 14 weeks.

root growth = experiment: Cumulative data from examples 1 through 4: Thymol concentration and root growth; format: in vivo; conditions: low concentrations; at higher concentrations anti-root activity
[4] = beds opened at end of experiment

## Cc1ccc(C(C)C)c(O)c1 [Thymol]
Mash bean seeds [1]; drippers opened after twenty days, ARC1 film, Thymol 5%, in pipe
  root penetration of drippers: remained free of roots
Mash bean seeds [1]; first four days, ARC1-based active film (Cloisite 15 3% wt, Thymol 5%) inserted in pipe
  number of germinated seeds compared with reference planter: greater
Mash bean seeds [1]; up to two weeks, ARC1 film, Thymol 5%, in pipe
  growth rate of roots and seedlings compared with reference planter: faster
Sorghum; listed as Thymol 1
  % Clogged drippers: 0%
  Clogged drippers: 0
  Clean drippers: 15
Sorghum; listed as Thymol 2
  % Clogged drippers: 4.76%
  Clogged drippers: 1
  Clean drippers: 20
Sorghum; [4]
  roots accumulated on top of the pipe in the area of the drippers' holes: lower than that obtained for the negative control
Sorghum; in vivo
  effect on roots development / harm to the crop under cultivation: less harmful to the crop under cultivation than Treflan
  efficacy in deterring roots from dripper openings relative to Treflan: roughly as effective as Treflan
Sorghum
  Clogged drippers: one
Helianthus seeds; ARC2 film (Cloisite 15A 10 wt %, 7% Thymol) in pipe
  germination rate compared with negative control planter: faster
Helianthus seeds; after 55 days, control planter 19
  number of helianthus flowers: 24
Helianthus seeds; out of five drippers, end of experiment (two months), control three out of five
  drippers penetrated by roots: two
Helianthus seeds; until plants reached maximum height
  seedling growth rate compared with control planter: remained faster
Cucumber seeds; ARC2 film (7% Thymol) adjacent to box wall
  germination rate compared with control box: faster
Cucumber seeds; FIG. 13
  number of germinated seeds compared with control box: greater
Cucumber seeds; FIG. 13, after 43 days
  seedlings' growth rate compared with control box: continued to be faster
Cucumber seeds; FIG. 13, control box 17 days
  time until 6 seeds germinated: 11 days
Tomato seeds
  germination rate compared with control box: faster
Sweet corn seeds
  germination rate compared with control box: faster
Beetroot seeds
  germination rate compared with control box: faster
[2]; after 2 months in soil, film in pipe, welded outside or at a distance
  amount of Thymol remaining in the film: around 5 % of the amount nominally incorporated in the film prior to processing
[2]; initial concentration at the beginning of the manufacturing process
  Thymol concentration in the film below which inhibitory activity decreases: about 9 % of the initial concentration
[2]; two and a half months (sorghum) vs two months (mash bean)
  Thymol concentration remaining in the film, sorghum experiment versus mash bean experiment: slightly higher
Mash bean seeds [3]; after 3 weeks, FIG. 19
  root inhibitory effect: best root inhibitory effect
Root growth
  concentration at which Thymol can stimulate root growth: < 0.4 wt %

## CCCN(CCC)c1c([N+](=O)[O-])cc(C(F)(F)F)cc1[N+](=O)[O-] [Treflan, trifluralin, reference compound]
Sorghum
  % Clogged drippers: 0%
  Clean drippers: 20
  Clogged drippers: 0
Sorghum; beds opened at end of experiment, FIG. 6, compared with negative control
  soil moisture in proximity to drippers: higher degree of moisture
Sorghum; [4]
  roots accumulated on top of the pipe in the area of the drippers' holes: no root concentration areas are observed
Sorghum; end of experiment
  root state of drippers: root-clean
Sorghum; subjective evidence
  effect on roots development / harm to the crop under cultivation: more aggressive and detrimental effect on roots development

## CCCCCCCCC(=O)O [Pelargonic acid]
Mash bean seeds [3]; after two weeks, FIG. 18
  effect on root growth: inhibitory effect on root growth compared to the reference sample, but the effect was less
